Legend:
BRD4 protein = BRD4 protein (Homo sapiens (Human), UniProt O60885); test: BRD4 protein degradation inducing action in LNCaP cells (immunofluorescence, 6 hr); type: cell-based; conditions: anti-BRD4 fluorescence intensity
Procedure: The degradation inducing action of the compound of the present invention on BRD4 proteins in cancer cells was evaluated in vitro using human prostate cancer LNCaP cells. LNCaP cells were suspended in 10% FBS/RPMI1640, seeded in a 96 well Cell carrier plate (Perkin Elmer) and cultured at 5% CO2, 37° C. overnight. A test compound dissolved in DMSO was diluted with 10% FBS/RPMI1640 and added and the cells were further cultured for 6 hr. After culturing, the cells were immobilized with 4% para-formaldehyde/PBS and further subjected to a permeation treatment with 0.25% Triton X-100/PBS. Thereafter, the cells were blocked with 10% BSA/PBS, Anti-BRD4 (Sigma-Aldrich) solution was added and the cells were incubated at 4° C. overnight. Furthermore, Goat anti-Rabbit IgG(H+L) Cross-Adsorbed Secondary Antibody, Alexa Fluor 546 (Thermo Fisher Scientific) solution, 0.5 μg/mL Hoechst 33342 (Sigma-Aldrich), and 14 μM Acti-Stain 555 Fluorescent Phalloidin (Cytoskeleton) were added. After incubation for 1 hr, BRD4 protein amount was measured by Operetta (Perkin Elmer) as fluorescence intensity (excitation: 560 nm, emission: 572 nm). The BRD4 protein degradation inducing activity of the compound of the present invention in LNCaP cells is shown in DC50 value in Table 3. The DC50 value is a concentration of the compound showing 50% fluorescence intensity when the fluorescence intensity thereof under compound untreated condition is 100%. It was calculated from the straight line connecting the fluorescence intensity at two points enclosing the 50% fluorescence intensity and the compound concentration.

[1] = system: human prostate cancer LNCaP cells; test: Cytotoxic action on LNCaP cells (WST-8, 96 hr); type: cell-based; conditions: 96 hr culture
Procedure: The cytotoxic action of the compound of the present invention against human cancer cells was evaluated in vitro. In this experiment, (+)-JQ1 (Nature volume 468, pages 1067-1073 (23 Dec. 2010)) known to have an inhibitory activity on the binding of BRD4 protein and a ligand therefor was used as a positive control drug. Respective cells were suspended in 10% FBS/RPMI1640, seeded in a 96 well plate and cultured at 5% CO2, 37° C. overnight. A test compound dissolved in DMSO was diluted with 10% FBS/RPMI1640 and added and the cells were further cultured for 96 hr. After culturing, the viable cell number was measured using a cell number measurement WST-8 kit (Kishida Chemical Co., Ltd.). As a control, the measurement was performed under conditions free of the test compound. The cytotoxic activity of the compound of the present invention against human prostate cancer LNCaP cells is shown in IC50 value in Table 1. The IC50 value is a concentration of the compound showing 50% cell survival rate when the cell survival rate thereof under compound untreated condition is 100%. It was calculated from the straight line connecting the cell survival rate at two points enclosing the 50% cell survival rate and the compound concentration. In addition, the cytotoxic activity against respective cancer cells of human acute myeloid leukemia MV-4-11 cell, human chronic myeloid leukemia K562 cell, human multiple myeloma MM.1S cell, human diffuse large B-cell lymphoma SU-DHL-6 cell, human T-cell leukemia Jurkat cells, human Burkitt lymphoma Raji cell, human castration-resistant prostate cancer PC-3 cell, human AR-V7 positive castration-resistant prostate cancer 22Rv1 cell, human ovarian cancer A2780 cell, human cisplatin-resistant ovarian cancer SK-OV-03 cell, human bladder cancer 5637 cell, human breast cancer ZR-75-1 cell, human triple negative breast cancer MDA-MB-231 cell, human uterus cervix cancer HeLa cell, human uterine sarcoma MES-SA cell, human stomach cancer SNU-16 cell, human non-small cell lung cancer NCI-H2126 cell, human EGFRT790M mutation-positive non-small cell lung cancer NCI-H1975 cell, human small cell lung cancer NCI-H82 cell, human large cell lung cancer NCI-H460 cell, human colon cancer HCT116 cell, human glioma U-87 MG cell, human pancreatic cancer BxPC-3 cell, human liver cancer HLF cell, human bile duct cancer HuCCT1 cell, human renal cell cancer 786-O cell, and human fibrosarcoma HT1080 cell is shown in IC50 value in Table 2.

Structure (SMILES)	DC50 (BRD4 protein)	IC50 [1]
COC(=O)C[C@@H]1N=C(c2ccc(-c3ccc(C(=O)NCc4ccc(S(=O)(=O)Nc5ccc(C)c6c(C#N)c[nH]c56)cc4)c(Cl)c3)cc2)c2c(sc(C)c2C)-n2c(C)nnc21 [Example 3, methyl [(6S)-4-{3′-chloro-4′-[({4-[(3-cyano-4-methyl-1H-indol-7-yl)sulfamoyl]phenyl}methyl)carbamoyl][1,1′-biphenyl]-4-yl}-2,3,9-trimethyl-6H-thieno[3,2-f][1,2,4]triazolo[4,3-a][1,4]diazepin-6-yl]acetate]	0.42 nM	0.092 nM
COC(=O)C[C@@H]1N=C(c2ccc(N3CC[C@@H](C(=O)NCc4ccc(S(=O)(=O)Nc5ccc(C)c6c(C#N)c[nH]c56)cc4)C3)cc2)c2c(sc(C)c2C)-n2c(C)nnc21 [Example 4, methyl [(6S)-4-(4-{(3R)-3-[({4-[(3-cyano-4-methyl-1H-indol-7-yl)sulfamoyl]phenyl}methyl)carbamoyl]pyrrolidin-1-yl}phenyl)-2,3,9-trimethyl-6H-thieno[3,2-f][1,2,4]triazolo[4,3-a][1,4]diazepin-6-yl]acetate]	38 nM	16 nM
COC(=O)C[C@@H]1N=C(c2ccc(C#CC(=O)NCc3ccc(S(=O)(=O)Nc4ccc(C)c5c(C#N)c[nH]c45)cc3)cc2)c2c(sc(C)c2C)-n2c(C)nnc21 [Example 5, methyl [(6S)-4-(4-{3-[({4-[(3-cyano-4-methyl-1H-indol-7-yl)sulfamoyl]phenyl}methyl)amino]-3-oxoprop-1-yn-1-yl}phenyl)-2,3,9-trimethyl-6H-thieno[3,2-f][1,2,4]triazolo[4,3-a][1,4]diazepin-6-yl]acetate]	15 nM	4.1 nM
COC(=O)C[C@@H]1N=C(c2ccc(-c3ccc(C(=O)NCc4ccc(S(=O)(=O)Nc5ccc(C)c6c(Cl)c[nH]c56)cc4)cc3)cc2)c2c(sc(C)c2C)-n2c(C)nnc21 [Example 8, methyl [(6S)-4-{4′-[({4-[(3-chloro-4-methyl-1H-indol-7-yl)sulfamoyl]phenyl}methyl)carbamoyl][1,1′-biphenyl]-4-yl}-2,3,9-trimethyl-6H-thieno[3,2-f][1,2,4]triazolo[4,3-a][1,4]diazepin-6-yl]acetate]	2.4 nM	2.8 nM
COC(=O)C[C@@H]1N=C(c2ccc(C3=CCN(C(=O)NCc4ccc(S(=O)(=O)Nc5ccc(C)c6c(C#N)c[nH]c56)cc4)CC3)cc2)c2c(sc(C)c2C)-n2c(C)nnc21 [Example 21, methyl [(6S)-4-(4-{1-[({4-[(3-cyano-4-methyl-1H-indol-7-yl)sulfamoyl]phenyl}methyl)carbamoyl]-1,2,3,6-tetrahydropyridin-4-yl}phenyl)-2,3,9-trimethyl-6H-thieno[3,2-f][1,2,4]triazolo[4,3-a][1,4]diazepin-6-yl]acetate]	6.7 nM	9.8 nM
COC(=O)C[C@@H]1N=C(c2ccc(-c3ccc(C(=O)NCC#Cc4ccc(S(=O)(=O)Nc5ccc(C)c6c(C#N)c[nH]c56)cc4)cc3)cc2)c2c(sc(C)c2C)-n2c(C)nnc21 [Example 31, methyl [(6S)-4-{4′-[(3-{4-[(3-cyano-4-methyl-1H-indol-7-yl)sulfamoyl]phenyl}prop-2-yn-1-yl)carbamoyl][1,1′-biphenyl]-4-yl}-2,3,9-trimethyl-6H-thieno[3,2-f][1,2,4]triazolo[4,3-a][1,4]diazepin-6-yl]acetate]	5.9 nM	4.2 nM
Cc1sc2c(c1C)C(c1ccc(-c3ccc(C(=O)NCc4ccc(S(=O)(=O)Nc5ccc(C)c6c(C#N)c[nH]c56)cc4)cc3)cc1)=N[C@@H](C)c1nnc(C)n1-2 [Example 32, N-({4-[(3-cyano-4-methyl-1H-indol-7-yl)sulfamoyl]phenyl}methyl)-4′-[(6S)-2,3,6,9-tetramethyl-6H-thieno[3,2-f][1,2,4]triazolo[4,3-a][1,4]diazepin-4-yl][1,1′-biphenyl]-4-carboxamide]	0.42 nM	0.69 nM
COC(=O)C[C@@H]1N=C(c2ccc(-c3ccc4oc(C(=O)NCc5ccc(S(=O)(=O)Nc6ccc(C)c7c(C#N)c[nH]c67)cc5)cc4c3)cc2)c2c(sc(C)c2C)-n2c(C)nnc21 [Example 35, methyl [(6S)-4-(4-{2-[({4-[(3-cyano-4-methyl-1H-indol-7-yl)sulfamoyl]phenyl}methyl)carbamoyl]-1-benzofuran-5-yl}phenyl)-2,3,9-trimethyl-6H-thieno[3,2-f][1,2,4]triazolo[4,3-a][1,4]diazepin-6-yl]acetate]	2.7 nM	7.2 nM

Further lines, with some results ahead:

DC50 (BRD4 protein)	Structure (SMILES)	IC50 [1]
0.23 nM	COC(=O)C[C@@H]1N=C(c2ccc(-c3ccc(C(=O)NCc4ccc(S(=O)(=O)Nc5ccc(C)c6c(C#N)c[nH]c56)cc4)c(F)c3)cc2)c2c(sc(C)c2C)-n2c(C)nnc21 [Example 2, methyl [(6S)-4-{4′-[({4-[(3-cyano-4-methyl-1H-indol-7-yl)sulfamoyl]phenyl}methyl)carbamoyl]-3′-fluoro[1,1′-biphenyl]-4-yl}-2,3,9-trimethyl-6H-thieno[3,2-f][1,2,4]triazolo[4,3-a][1,4]diazepin-6-yl]acetate]	0.35 nM
0.22 nM	COC(=O)C[C@@H]1N=C(c2ccc(-c3ccc(C(=O)NCc4ccc(S(=O)(=O)Nc5ccc(OC)c6c(C#N)c[nH]c56)cc4)cc3)cc2)c2c(sc(C)c2C)-n2c(C)nnc21 [Example 15, methyl [(6S)-4-{4′-[({4-[(3-cyano-4-methoxy-1H-indol-7-yl)sulfamoyl]phenyl}methyl)carbamoyl][1,1′-biphenyl]-4-yl}-2,3,9-trimethyl-6H-thieno[3,2-f][1,2,4]triazolo[4,3-a][1,4]diazepin-6-yl]acetate]	0.28 nM
0.16 nM	COC(=O)C[C@@H]1N=C(c2ccc(-c3ccc(C(=O)NCc4ccc(S(=O)(=O)Nc5ccc(C)c6c(C#N)c[nH]c56)c(F)c4)cc3)cc2)c2c(sc(C)c2C)-n2c(C)nnc21 [Example 25, methyl [(6S)-4-{4′-[({4-[(3-cyano-4-methyl-1H-indol-7-yl)sulfamoyl]-3-fluorophenyl}methyl)carbamoyl][1,1′-biphenyl]-4-yl}-2,3,9-trimethyl-6H-thieno[3,2-f][1,2,4]triazolo[4,3-a][1,4]diazepin-6-yl]acetate]	0.24 nM
0.14 nM	COC(=O)C[C@@H]1N=C(c2ccc(-c3ccc(C(=O)N[C@H](C)c4ccc(S(=O)(=O)Nc5ccc(C)c6c(C#N)c[nH]c56)cc4)cc3)cc2)c2c(sc(C)c2C)-n2c(C)nnc21 [Example 26, methyl [(6S)-4-(4′-{[(1R)-1-{4-[(3-cyano-4-methyl-1H-indol-7-yl)sulfamoyl]phenyl}ethyl]carbamoyl}[1,1′-biphenyl]-4-yl)-2,3,9-trimethyl-6H-thieno[3,2-f][1,2,4]triazolo[4,3-a][1,4]diazepin-6-yl]acetate]	0.1 nM
0.41 nM	COC(=O)NC1N=C(c2ccc(-c3ccc(C(=O)NCc4ccc(S(=O)(=O)Nc5ccc(C)c6c(C#N)c[nH]c56)cc4)cc3)cc2)c2c(sc(C)c2C)-n2c(C)nnc21 (centres unmarked) [Example 36, methyl (4-{4′-[({4-[(3-cyano-4-methyl-1H-indol-7-yl)sulfamoyl]phenyl}methyl)carbamoyl][1,1′-biphenyl]-4-yl}-2,3,9-trimethyl-6H-thieno[3,2-f][1,2,4]triazolo[4,3-a][1,4]diazepin-6-yl)carbamate]	1.4 nM

From patent US11890288B2, “Sulfonamide or sulfinamide compound having effect of inducing BRD4 protein degradation and pharmaceutical use thereof” (MITSUBISHI TANABE PHARMA CORPORATION, priority 2020, dated 2024)
